Reference: PubChem BioAssay (NCI)
“And” between values parts separate entries of the source, which are not always exact repeats. Equal values may be shown once.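 These data come from cells grown in 96-well plates and exposed to compound for 48 hours at five concentrations. Here, GI50 denotes the concentration required for 50% inhibition of growth. Definition used: TGI = concentration required for complete inhibition of growth.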

Key:
Assay in all cases: NCI anticancer screen, dose series, 48 h
[1] = test system: KM12 colon
[2] = test system: MDA-MB-435
[3] = test system: HCT-15 colon
[4] = test system: DMS 273 small cell lung
[5] = test system: SNB-78 CNS
[6] = test system: NCI-H522 lung
[7] = test system: HCT-116 colon
[8] = test system: HL-60(TB) leukemia
[9] = test system: CAKI-1 renal
[10] = test system: T-47D breast

Structure (SMILES) | GI50 [1] | TGI [1] | GI50 [2] | TGI [2] | GI50 [3] | TGI [3] | TGI [4] | TGI [5] | GI50 [6] | TGI [6] | GI50 [7] | TGI [7] | GI50 [8] | TGI [8] | GI50 [9] | TGI [9] | GI50 [10] | TGI [10]
CCCCc1oc2ccccc2c1C(=O)c1cc(I)c(OCCN(CC)CC)c(I)c1 | 1.84 µM | 3.61 µM and 12.3 µM | 2.41 µM | 6.53 µM | 2.06 µM | 4.68 µM and 8.21 µM | 7.74 µM | 25 µM | 1.79 µM | 3.48 µM and 12.3 µM | 1.82 µM | 3.88 µM and 9.07 µM | 1.93 µM | 3.88 µM and 7.09 µM | 2.51 µM | 10.7 µM and 15.5 µM | 3.16 µM | 12.2 µM
c1ccc([P+](CCC[P+](c2ccccc2)(c2ccccc2)c2ccccc2)(c2ccccc2)c2ccccc2)cc1 | 3.86 µM | > 100 µM | 4.84 µM | > 100 µM | > 100 µM | > 100 µM | 47.9 µM | > 100 µM | 3.53 µM | > 100 µM and 24.8 µM | 7.27 µM | > 100 µM | 2.27 µM | 36.9 µM and 6.75 µM |  | > 100 µM | 4.1 µM | 84.9 µM
